From US20240279233A1, “MACROCYCLIC TAK1 INHIBITORS” (Aqilion AB, priority 2021, published 2024) come the findings set out here.

For series [1], the target named is human recombinant TAK1-TAB1 Kinase (TAK1 (1-303) and TAB1 (437-end)) (Homo sapiens (Human), UniProt O43318). The experiment in a line: TAK1 biochemical ADP-Glo kinase assay. The conditions noted are these: MBP substrate. An outline of the steps:
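Inhibition of human recombinant TAK1-TAB1 kinase was measured with a Promega ADP-Glo luminescence assay in 384-well plates. Compounds in 5% DMSO were pre-incubated 10 min with 2 μl TAK1-TAB1 (7.5 ng/μl) in buffer of Tris pH 7.5, MgCl2, DTT and BSA. MBP substrate and ATP were then added for 1 hour at room temperature. ADP-Glo reagent and kinase detection substrate followed, luminescence was read on an Envision, and IC50 came from non-linear regression.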

The nature of series [2]: Solubility assay in phosphate buffer. The note with it: phosphate buffer 100 mM, pH 7.4, room temperature, 20-24 h, LC-UV.
Description: The aqueous solubility of selected example compounds was determined as follows; 6 μL of DMSO stock solution of the selected example was added to 594 μL phosphate buffer (100 mM, pH 7.4). The resulting mixture was equilibrated over night (20-24 h, Alligator Shaker, room temperature). The mixture was then filtered (Millex LH 0.45 μm) and the concentration/solubility was determined by LC-UV quantification.
The mark [3] stands for this setting: 10 μM ATP, read-out: TAK1 Mean IC50 (nM) @ 10 μM ATP.
[4] abbreviates: phosphate buffer, pH 7.4, aqueous buffer, kinetic from dmso stock, Solubility (μM).
[5] abbreviates: 1 mM ATP, read-out: TAK1 Mean IC50 (nM) @ 1 mM ATP.

Converted amounts (≈) assume the structure as drawn. Like-named read-outs stand apart in the source and are kept apart here.

human recombinant TAK1-TAB1 Kinase (TAK1 (1-303) and TAB1 (437-end)), sequence (O43318 other isoform, or with tags, fused parts or gaps): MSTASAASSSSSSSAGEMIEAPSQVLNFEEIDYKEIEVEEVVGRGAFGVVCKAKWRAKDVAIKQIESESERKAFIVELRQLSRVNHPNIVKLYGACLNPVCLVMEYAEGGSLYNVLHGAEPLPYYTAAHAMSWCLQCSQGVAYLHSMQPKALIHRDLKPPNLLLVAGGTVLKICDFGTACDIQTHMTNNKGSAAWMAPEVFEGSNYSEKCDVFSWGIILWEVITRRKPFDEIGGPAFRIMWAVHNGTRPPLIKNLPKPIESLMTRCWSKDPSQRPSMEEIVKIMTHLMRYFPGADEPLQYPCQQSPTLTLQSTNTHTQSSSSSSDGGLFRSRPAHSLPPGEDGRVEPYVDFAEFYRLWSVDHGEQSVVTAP

On to `CN1C[C@@H]2C[C@H]1CN2C(=O)c1cccc2c1N1CCCCCNC(=O)c3cccc(c3)C(=O)/N=C/1N2` [Example 22, (E)-1^7-((1S,4S)-5-methyl-2,5-diazabicyclo[2.2.1]heptane-2-carbonyl)-1^2,1^3-dihydro-1^1H-2,6-diaza-1(2,1)-benzo[d]imidazola-4(1,3)-benzenacycloundecaphane-3,5-dione], for which the IC50 in series [1] (setting [3]) is 9 nM. This molecule registered a solubility in series [2] (setting [4]) of 88.5 µM (≈ 43.1 µg/mL).
Consider `CN(C)[C@@H]1CCN(C(=O)c2cccc3c2N2CCCCCNC(=O)c4cccc(c4)C(=O)/N=C/2N3)C1` [Example 23, (R,E)-1^7-(3-(dimethylamino)pyrrolidine-1-carbonyl)-1^2,1^3-dihydro-1^1H-2,6-diaza-1(2,1)-benzo[d]imidazola-4(1,3)-benzenacycloundecaphane-3,5-dione], for which the IC50 in series [1] (setting [3]) was 8 nM. Besides, in series [2] (setting [4]), the solubility is 83.3 µM (≈ 40.7 µg/mL).
On the same counts, the results for `C[C@H]1CN(C)CCN1C(=O)c1cccc2c1N1CCCCCNC(=O)c3cccc(c3)C(=O)/N=C/1N2` [Example 24, (S,E)-1^7-(2,4-dimethylpiperazine-1-carbonyl)-1^2,1^3-dihydro-1^1H-2,6-diaza-1(2,1)-benzo[d]imidazola-4(1,3)-benzenacycloundecaphane-3,5-dione] are 4 nM and 26.2 µM (≈ 12.8 µg/mL).
On the same counts, the results for `CN1C[C@H]2C[C@@H]1CN2C(=O)c1cccc2c1N1CCCCCNC(=O)c3cccc(c3)C(=O)/N=C/1N2` [Example 25, (E)-1^7-((1R,4R)-5-methyl-2,5-diazabicyclo[2.2.1]heptane-2-carbonyl)-1^2,1^3-dihydro-1^1H-2,6-diaza-1(2,1)-benzo[d]imidazola-4(1,3)-benzenacycloundecaphane-3,5-dione] are 2 nM and 82 µM (≈ 39.9 µg/mL).
The matching figures for `CN1CCCN(C(=O)c2cccc3c2N2CCCCCNC(=O)c4cccc(c4)C(=O)/N=C/2N3)CC1` [Example 26, (E)-1^7-(4-methyl-1,4-diazepane-1-carbonyl)-1^2,1^3-dihydro-1^1H-2,6-diaza-1(2,1)-benzo[d]imidazola-4(1,3)-benzenacycloundecaphane-3,5-dione]: 5 nM and 78.7 µM (≈ 38.5 µg/mL).
For `C[C@@H]1CCCCNC(=O)c2cccc(c2)C(=O)/N=C2\Nc3cccc(C(=O)N4C[C@H]5C[C@@H]4CN5C)c3N21` [Example 29, (R, E)-11-methyl-1^7-((1R,4R)-5-methyl-2,5-diazabicyclo[2.2.1]heptane-2-carbonyl)-1^2,1^3-dihydro-1^1H-2,6-diaza-1(2,1)-benzo[d]imidazola-4(1,3)-benzenacycloundecaphane-3,5-dione], in series [1] (setting [3]), the IC50 worked out at 6 nM. In series [2] (setting [4]), this molecule yielded a solubility of 95 µM (≈ 47.6 µg/mL).
As to `C[C@H]1CCCCNC(=O)c2cccc(c2)C(=O)/N=C2\Nc3cccc(C(=O)N4C[C@H]5C[C@@H]4CN5C)c3N21` [Example 30, (S, E)-11-methyl-1^7-((1R,4R)-5-methyl-2,5-diazabicyclo[2.2.1]heptane-2-carbonyl)-1^2,1^3-dihydro-1^1H-2,6-diaza-1(2,1)-benzo[d]imidazola-4(1,3)-benzenacycloundecaphane-3,5-dione], in series [1] (setting [3]), the IC50 turned out to be 8 nM. Moreover, the solubility in series [2] (setting [4]) stood at 95 µM (≈ 47.6 µg/mL).
On the same counts, the results for `CC1CCCCNC(=O)c2cccc(c2)C(=O)/N=C2\Nc3cccc(C(=O)N4CCC4)c3N21` (centres unmarked) [Example 43, (E)-1^7-(azetidine-1-carbonyl)-11-methyl-1^2,1^3-dihydro-1^1H-2,6-diaza-1(2,1)-benzo[d]imidazola-4(1,3)-benzenacycloundecaphane-3,5-dione] are 4 nM and 16 µM (≈ 7.13 µg/mL).
With `C[C@H]1CCCCn2c(nc3cccc(C(=O)N(C)C)c32)NC(=O)c2cccc(c2)C(=O)N1` [Example 44, (S,E)-N,N,7-trimethyl-3,5-dioxo-1^2,1^3-dihydro-1^1H-2,6-diaza-1(2,1)-benzo[d]imidazola-4(1,3)-benzenacycloundecaphane-1^7-carboxamide], the IC50 in series [1] (setting [3]) turned out to be 223 nM. The solubility in series [2] (setting [4]) was found to be 26 µM (≈ 11.3 µg/mL).
Consider `CC(=O)Nc1cccc2c1N1/C(=N/C(=O)c3cccc(c3)C(=O)NCCCCC1C)N2` (centres unmarked) [Example 45, (E)-N-(11-methyl-3,5-dioxo-1^2,1^3-dihydro-1^1H-2,6-diaza-1(2,1)-benzo[d]imidazola-4(1,3)-benzenacycloundecaphane-1^7-yl)acetamide], for which the IC50 in series [1] (setting [3]) amounted to 4 nM. In series [2] (setting [4]), this molecule yielded a solubility of 74 µM (≈ 31 µg/mL).
As to `CC(C)N(C)C(=O)c1cccc2c1N1/C(=N/C(=O)c3cccc(c3)C(=O)NCCCCC1C)N2` (centres unmarked) [Example 47, (E)-N-isopropyl-N,11-dimethyl-3,5-dioxo-1^2,1^3-dihydro-1^1H-2,6-diaza-1(2,1)-benzo[d]imidazola-4(1,3)-benzenacycloundecaphane-1^7-carboxamide], in series [1] (setting [3]), the IC50 turned out to be 1 nM. The solubility in series [2] (setting [4]) was 42 µM (≈ 19.4 µg/mL).
As to `CC(C)N(C)C(=O)c1cccc2c1N1/C(=N/C(=O)c3cccc(c3)C(=O)NCCCCC1C)N2` (centres unmarked) [Example 48, (E)-N-isopropyl-N,11-dimethyl-3,5-dioxo-1^2,1^3-dihydro-1^1H-2,6-diaza-1(2,1)-benzo[d]imidazola-4(1,3)-benzenacycloundecaphane-1^7-carboxamide], in series [1] (setting [3]), the IC50 worked out at 1 nM. For the same molecule, the “solubility” value in series [2] is 24.0 µM (≈ 11.1 µg/mL).
On to `COC1(C)CN(C(=O)c2cccc3c2N2/C(=N/C(=O)c4cccc(c4)C(=O)NCCCCC2C)N3)C1` (centres unmarked) [Example 49, (E)-1^7-(3-methoxy-3-methylazetidine-1-carbonyl)-11-methyl-1^2,1^3-dihydro-1^1H-2,6-diaza-1(2,1)-benzo[d]imidazola-4(1,3)-benzenacycloundecaphane-3,5-dione], for which the IC50 in series [1] (setting [3]) is 3 nM. The solubility in series [2] (setting [4]) stood at 89 µM (≈ 43.6 µg/mL).
In the case of `COC1(C)CN(C(=O)c2cccc3c2N2/C(=N/C(=O)c4cccc(c4)C(=O)NCCCCC2C)N3)C1` (centres unmarked) [Example 50, (E)-1^7-(3-methoxy-3-methylazetidine-1-carbonyl)-11-methyl-1^2,1^3-dihydro-1^1H-2,6-diaza-1(2,1)-benzo[d]imidazola-4(1,3)-benzenacycloundecaphane-3,5-dione], the IC50 in series [1] (setting [3]) turned out to be 3 nM. Moreover, the “solubility” value in series [2] was 80.0 µM (≈ 39.2 µg/mL).
Take `C[C@@H]1CCCCNC(=O)c2cccc(c2)C(=O)Nc2nc3ccc(Cl)c(C(=O)N(C)C)c3n21` [Example 55, (R,E)-1^6-chloro-N,N,11-trimethyl-3,5-dioxo-1^2,1^3-dihydro-1^1H-2,6-diaza-1(2,1)-benzo[d]imidazola-4(1,3)-benzenacycloundecaphane-1^7-carboxamide]: the IC50 in series [1] (setting [3]) is 6 nM. Also, the “solubility” value in series [2] turned out to be 74.0 µM (≈ 34.6 µg/mL).
The matching figures for `C[C@@H]1CCCCNC(=O)c2cccc(c2)C(=O)Nc2nc3ccc(Cl)c(C(=O)N(C)C)c3n21` [Example 56, (R,E)-1^6-chloro-N,N,11-trimethyl-3,5-dioxo-1^2,1^3-dihydro-1^1H-2,6-diaza-1(2,1)-benzo[d]imidazola-4(1,3)-benzenacycloundecaphane-1^7-carboxamide]: 16 nM and 7.1 µM (≈ 3.32 µg/mL).
Regarding `[2H]C([2H])([2H])N(C(=O)c1cccc2c1N1/C(=N/C(=O)c3cccc(c3)C(=O)NCCCC[C@H]1C)N2)C([2H])([2H])[2H]` [Example 64, (R,E)-11-methyl-N,N-bis(methyl-d3)-3,5-dioxo-1^2,1^3-dihydro-1^1H-2,6-diaza-1(2,1)-benzo[d]imidazola-4(1,3)-benzenacycloundecaphane-1^7-carboxamide], the IC50 in series [1] (setting [3]) stood at 3 nM. Also, in series [2] (setting [4]), the solubility was 44 µM (≈ 19.3 µg/mL).
On the same counts, the results for `C[C@@H]1CCCCNC(=O)c2cccc(c2)C(=O)Nc2nc3cc(C(C)(C)O)cc(C(=O)N(C)C)c3n21` [Example 69, (R,E)-1^5-(2-hydroxypropan-2-yl)-N,N,11-trimethyl-3,5-dioxo-1^2,1^3-dihydro-1^1H-2,6-diaza-1(2,1)-benzo[d]imidazola-4(1,3)-benzenacycloundecaphane-1^7-carboxamide] are 2 nM and 93 µM (≈ 45.7 µg/mL).
As to `C[C@H]1CCCCNC(=O)c2cccc(c2)C(=O)/N=C2\Nc3cccc(N4CCN(C)C4=O)c3N21` [Example 74, (S,E)-11-methyl-1^7-(3-methyl-2-oxoimidazolidin-1-yl)-1^2,1^3-dihydro-1H-2,6-diaza-1(2,1)-benzo[d]imidazola-4(1,3)-benzenacycloundecaphane-3,5-dione], the IC50 in series [1] (setting [3]) was 7 nM; in series [1] (setting [5]), 11 nM. In addition, in series [2] (setting [4]), the solubility stood at 90 µM (≈ 41.4 µg/mL).
With `C[C@H]1CCCCNC(=O)c2cccc(c2)C(=O)Nc2nc3cccc(-c4ncn(C)n4)c3n21` [Example 84, (S)-11-methyl-1^7-(1-methyl-1H-1,2,4-triazol-3-yl)-1^1H-2,6-diaza-1(2,1)-benzo[d]imidazola-4(1,3)-benzenacycloundecaphane-3,5-dione], in series [1] (setting [3]), the IC50 came out at 5 nM. In addition, in series [2] (setting [4]), the solubility is 15 µM (≈ 6.65 µg/mL).
As to `C[C@H]1CCCCNC(=O)c2cccc(c2)C(=O)Nc2nc3cccc(-c4ncnn4C)c3n21` [Example 86, (S,E)-11-methyl-1^7-(1-methyl-1H-1,2,4-triazol-5-yl)-1^1H-2,6-diaza-1(2,1)-benzo[d]imidazola-4(1,3)-benzenacycloundecaphane-3,5-dione], the IC50 was 4 nM in series [1] (setting [3]) and 9 nM in series [1] (setting [5]). The solubility in series [2] (setting [4]) is 33 µM (≈ 14.6 µg/mL).
On the same counts, the results for `C[C@H]1CCCCNC(=O)c2cccc(c2)C(=O)/N=C2\Nc3cccc(-c4cn(C)nn4)c3N21` [Example 87, (S,E)-11-methyl-1^7-(1-methyl-1H-1,2,3-triazol-4-yl)-1^2,1^3-dihydro-1^1H-2,6-diaza-1(2,1)-benzo[d]imidazola-4(1,3)-benzenacycloundecaphane-3,5-dione] are 5 nM, 9 nM and 4.7 µM (≈ 2.08 µg/mL).
